# What was measured:
# [1] = Lipophilicity, logD of compound at pH 7.5 by reversed-phase HPLC analysis; type: physicochemical; conditions: buffer
# [2] = Metabolic stability in Han Wistar rat hepatocytes assessed as maximum bioavailability at 1 uM in presence of NADP and measured upto 90 mins by LC-MS/MS analysis; type: ADME, Hepatocyte; conditions: read-out: Fmax
# [3] = Metabolic stability in Han Wistar rat liver microsomes assessed as intrinsic clearance at 1 uM in presence of NADP and measured upto 60 mins by LC-MS/MS analysis; type: ADME, Microsome; conditions: read-out: CLH (converted)
# [4] = Aqueous solubility of compound at pH 6.5 and measured after 24 hrs by HPLC-MS/MS analysis; type: physicochemical; conditions: buffer
# [5] = Metabolic stability in Han Wistar rat liver microsomes assessed as maximum bioavailability at 1 uM in presence of NADP and measured upto 60 mins by LC-MS/MS analysis; type: ADME, Microsome; conditions: read-out: Fmax
# [6] = Metabolic stability in Han Wistar rat hepatocytes assessed as intrinsic clearance at 1 uM in presence of NADP and measured upto 90 mins by LC-MS/MS analysis; type: ADME, cell-based, Hepatocyte; conditions: read-out: CLH (converted)
# [7] = Acid dissociation constant, pKa of the compound; type: physicochemical
# [8] = Metabolic stability in human liver microsomes assessed as maximum bioavailability at 1 uM in presence of NADP and measured upto 60 mins by LC-MS/MS analysis; type: ADME, Microsome; conditions: read-out: Fmax
# [9] = Stability of compound at pH 1 at 5 uM and measured upto 24 hrs by HPLC-UV analysis; type: physicochemical; conditions: buffer, pH 1, 24 h
# [10] = Stability of compound at pH 7 at 5 uM and measured upto 24 hrs by HPLC-UV analysis; type: physicochemical; conditions: buffer, pH 7, 24 h
# [11] = Stability of compound at pH 10 at 5 uM and measured upto 24 hrs by HPLC-UV analysis; type: physicochemical; conditions: buffer, pH 10, 24 h
compound,measurement,setting,value
CC[C@@H](Nc1c(C#N)c(-c2ccc(-c3cccc(C)c3)cc2)nc2cnccc12)C(N)=O,chromatographic logD,[1],3
CCOc1ccccc1-c1ccc(-c2nc3cnccc3c(N)c2C#N)cc1,chromatographic logD,[1],3
CC[C@@H](Nc1c(C#N)c(-c2ccc(-c3ccccc3N(C)C)cc2)nc2cnccc12)C(N)=O,chromatographic logD,[1],3.2
CCOc1ccccc1-c1ccc(-c2nc3cnccc3c(N[C@H](CC)C(=O)N(C)C)c2C#N)cc1,chromatographic logD,[1],3.7
CCOc1ccccc1-c1ccc(-c2nc3cnccc3c(N[C@@H]3CCNC3=O)c2C#N)cc1,chromatographic logD,[1],2.7
CC[C@@H](Nc1c(C#N)c(-c2ccc(-c3ccccc3COC)cc2)nc2cnccc12)C(N)=O,chromatographic logD,[1],2.6
CC[C@@H](Nc1c(C#N)c(-c2ccc(-c3ccccc3NC)cc2)nc2cnccc12)C(N)=O,chromatographic logD,[1],2.5
CC[C@@H](Nc1c(C#N)c(-c2ccc(-c3cccc(Cl)c3OC)cc2)nc2cnccc12)C(N)=O,chromatographic logD,[1],3.1
CCOc1ccccc1-c1ccc(-c2nc3cnccc3c(N[C@H](CC(C)C)C(N)=O)c2C#N)cc1,chromatographic logD,[1],3.4
CC[C@@H](Nc1c(C#N)c(-c2ccc(Br)cc2)nc2cnccc12)C(=O)O,chromatographic logD,[1],1.6
CC[C@@H](Nc1c(C#N)c(-c2ccc(-c3cccc(Cl)c3)cc2)nc2cnccc12)C(N)=O,chromatographic logD,[1],3.1
CC[C@@H](Nc1c(C#N)c(-c2ccc(-c3cnccc3C)cc2)nc2cnccc12)C(N)=O,chromatographic logD,[1],2
CC[C@@H](Nc1c(C#N)c(-c2ccc(-c3ccccc3C(F)(F)F)cc2)nc2cnccc12)C(N)=O,chromatographic logD,[1],3.1
CCOc1ccccc1-c1ccc(-c2nc3cnccc3c(N[C@H](CC)C(=O)O)c2C#N)cc1,"Fh at 1.5 h, 1 µM",[2],87%
same,CLint scaled at 1 µM,[3],8.33 mL/min/kg
same,solubility at 24 h,[4],112 µg/mL
same,chromatographic logD,[1],2.1
same,"Fh at 1 h, 1 µM",[5],87%
same,CLint scaled at 1 µM,[6],8.33 mL/min/kg
CC[C@@H](Nc1c(C#N)c(-c2ccc(-c3ccccc3Cl)cc2)nc2cnccc12)C(N)=O,chromatographic logD,[1],2.9
CC[C@@H](Nc1c(C#N)c(-c2ccc(-c3ccncc3C)cc2)nc2cnccc12)C(N)=O,chromatographic logD,[1],2
CC[C@@H](Nc1c(C#N)c(-c2ccc(-c3cccnc3C)cc2)nc2cnccc12)C(N)=O,chromatographic logD,[1],1.9
CC[C@@H](Nc1c(C#N)c(-c2ccc(-c3cccc(Cl)c3F)cc2)nc2cnccc12)C(=O)O,chromatographic logD,[1],2.2
CC[C@@H](Nc1c(C#N)c(-c2ccc(-c3ncccc3C)cc2)nc2cnccc12)C(N)=O,chromatographic logD,[1],2
CC(C)(Nc1c(C#N)c(-c2ccc(Br)cc2)nc2cnccc12)C(N)=O,chromatographic logD,[1],2.1
CC[C@@H](Nc1c(C#N)c(-c2ccc(-c3ccccc3C(C)C)cc2)nc2cnccc12)C(N)=O,chromatographic logD,[1],3.5
CC[C@@H](Nc1c(C#N)c(-c2ccc(-c3ccccc3CO)cc2)nc2cnccc12)C(N)=O,chromatographic logD,[1],2.1
CCOc1ccccc1-c1ccc(-c2nc3cnccc3c(C[C@H](C)C(N)=O)c2C#N)cc1,chromatographic logD,[1],3
CC[C@@H](Nc1c(C#N)c(-c2ccc(-c3cccc(CO)c3)cc2)nc2cnccc12)C(N)=O,chromatographic logD,[1],2
CCOc1ccccc1-c1ccc(-c2nc3cnccc3c(N[C@H](CC)C(=O)NS(C)(=O)=O)c2C#N)cc1,chromatographic logD,[1],2.2
CC[C@@H](Nc1c(C#N)c(-c2ccc(-c3ccccc3C)cc2)nc2cnccc12)C(N)=O,chromatographic logD,[1],3
CCOc1ccccc1-c1ccc(-c2nc3cnccc3c(N[C@H](CC)C(=O)NCC(F)F)c2C#N)cc1,chromatographic logD,[1],3.6
CCOc1ccccc1-c1ccc(-c2nc3cnccc3cc2C#N)cc1,chromatographic logD,[1],3.8
CCOc1ccccc1-c1ccc(-c2nc3cnccc3c(N[C@H](CC)C(=O)NS(=O)(=O)C3CC3)c2C#N)cc1,chromatographic logD,[1],2.3
CC[C@@H](Nc1c(C#N)c(-c2ccc(-c3ccc(F)cc3)cc2)nc2cnccc12)C(N)=O,chromatographic logD,[1],2.7
CCOc1ccccc1-c1ccc(-c2nc3cnccc3c(NC(C(N)=O)C3CC3)c2C#N)cc1 (racemic),chromatographic logD,[1],3
CCOc1ccccc1-c1ccc(-c2nc3cnccc3c(NC(COC)C(N)=O)c2C#N)cc1 (racemic),chromatographic logD,[1],2.8
CCOc1ccccc1-c1ccc(-c2nc3cnccc3c(NC(C)C(=O)O)c2C#N)cc1 (racemic),pKa,[7],3.26
same,chromatographic logD,[1],2.1
CC(Nc1c(C#N)c(-c2ccc(Br)cc2)nc2cnccc12)C(N)=O (racemic),chromatographic logD,[1],2.1
CCCCC(Nc1c(C#N)c(-c2ccc(-c3ccccc3OCC)cc2)nc2cnccc12)C(N)=O (racemic),chromatographic logD,[1],3.6
CCOc1ccccc1-c1ccc(-c2nc3cnccc3c(NC(CC)CNS(=O)(=O)C3CC3)c2C#N)cc1 (racemic),chromatographic logD,[1],3.6
CCOc1ccccc1-c1ccc(-c2nc(NC(C)C(=O)O)c3ccncc3n2)cc1 (racemic),chromatographic logD,[1],2.1
CC[C@@H](Nc1c(C#N)c(-c2ccc(-c3cccc(C)c3F)cc2)nc2cnccc12)C(=O)O [BAY-091],"Fh at 1.5 h, 1 µM",[2],44%
same,CLint scaled at 1 µM,[3],46.7 mL/min/kg
same,"Fh at 1 h, 1 µM",[8],100%
same,Stability,[9],Stable
same,solubility at 24 h,[4],> 1000 µg/mL
same,chromatographic logD,[1],2.1
same,"Fh at 1 h, 1 µM",[5],33%
same,Stability,[10],Stable
same,Stability,[11],Stable
same,CLint scaled at 1 µM,[6],38.3 mL/min/kg

# — ChEMBL document CHEMBL5241108 (J Med Chem, 2021)
